We go through 53 compounds from patent US20230382894A1, “CCR4 ANTAGONISTS” (CHEMOCENTRYX, INC., priority 2022, published 2023).

Bounds are passed on as bounds.

The assay concerns the target T1, CCR4 (Homo sapiens, UniProt P51679).
T1 construct: CEM Cells Endogenous Express CCR4; endogenous in cells; host or cells: CEM cells
T1 sequence (P51679 1-360): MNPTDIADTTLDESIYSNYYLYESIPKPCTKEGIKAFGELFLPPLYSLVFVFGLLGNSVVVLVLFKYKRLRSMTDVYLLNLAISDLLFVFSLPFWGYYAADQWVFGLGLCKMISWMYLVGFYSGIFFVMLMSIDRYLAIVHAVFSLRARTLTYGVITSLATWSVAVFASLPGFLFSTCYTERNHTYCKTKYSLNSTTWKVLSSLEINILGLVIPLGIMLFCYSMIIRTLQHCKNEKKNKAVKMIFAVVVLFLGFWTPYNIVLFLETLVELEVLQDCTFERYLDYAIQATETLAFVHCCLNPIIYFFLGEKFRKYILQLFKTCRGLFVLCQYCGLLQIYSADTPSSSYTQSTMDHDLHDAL
Nature of the assay: CEM cell chemotaxis (migration) assay to CCL22 (MDC) in 100% Fetal Bovine Serum (FBS). Format: cell-based. As to conditions: CEM cells in 100% FBS with 1% HEPEs; recombinant human CCL22 0.1 nM; 37° C. 60 minutes. An excerpt:
CEM Cells Endogenous Express CCR4
A chemotaxis assay can be used to determine the efficacy of potential receptor antagonists at blocking the migration mediated through chemokine receptors, such as CCR4. This assay is routinely performed using the ChemoTX® microchamber system with a 5 μm pore-sized polycarbonate membrane.
FBS: CEM Cells are collected by centrifugation at 400×g at room temperature, then suspended at 5 million/ml in 100% Fetal Bovine Serum (FBS) with 1% HEPEs. The compound being tested is serially diluted from a maximum final concentration of 10 μM (or an equivalent volume of its solvent (DMSO)) and is then added to the cell/buffer mixture. Separately, recombinant human CCL22 (MDC) at its EC50 concentration (0.1 nM) is placed in the lower wells of the ChemoTX® plate. The 5-μm (pore size) polycarbonate membrane was placed onto the plate, and 20 μL of the cell/compound mixture is transferred onto each well of the membrane. The plates are incubated at 37° C. for 60 minutes, after which the polycarbonate membranes are removed and 5 μl of the DNA-intercalating dye CyQUANT (Invitrogen, Carlsbad, CA) is added to the lower wells. The amount of fluorescence, corresponding to the number of migrated cells, is measured using a Spectrafluor Plus plate reader (TECAN, San Jose, CA).
As to `C[C@@H](Nc1nc(N2CCC(OC3CNC3)CC2)ncc1Cl)c1ccc(Cl)cc1Cl` [Example 1.199], the IC50 (as a rule, the concentration needed to halve the response being measured) lay in the range of 100 to 1000 nM.
To `C[C@@H](Nc1nc(N2CC[C@H](NC(=O)CN(C)C)[C@@H](O)C2)ncc1Cl)c1ccc(Cl)cc1Cl` [Example 1.203] belongs 100 to 1000 nM.
The same measure for `C[C@@H](Nc1nc(N2CCN(C(=O)[C@H]3CC4(CC4)C(=O)N3)CC2)ncc1Cl)c1ccc(Cl)cc1Cl` [Example 1.195]: 100 to 1000 nM.
Consider `C[C@@H](Nc1nc(N2CCN(C(=O)[C@H]3C[C@H](F)CN3)CC2)ncc1Cl)c1ccc(Cl)cc1Cl` [Example 1.142], for which the IC50 is < 100 nM.
To `C[C@@H](Nc1nc(N2CCN(C(=O)[C@H]3CNC(=O)N3)CC2)ncc1Cl)c1ccc(Cl)cc1Cl` [Example 1.222] belongs < 100 nM.
On to `C[C@@H](Nc1nc(N2CCN(C(=O)[C@H]3CCN(C)C3)CC2)ncc1C(C)(C)O)c1ccc(Cl)cc1Cl` [Example 1.154], for which the IC50 was 100 to 1000 nM.
To `C[C@@H]1CC[C@H](C(=O)N[C@H]2CCN(c3ncc(Cl)c(N[C@H](C)c4ccc(Cl)cc4Cl)n3)C[C@@H]2O)N1` [Example 1.248] belongs < 100 nM; to `C[C@H]1CC[C@H](C(=O)N[C@H]2CCN(c3ncc(OC(F)F)c(N[C@H](C)c4ccc(Cl)cc4Cl)n3)C[C@@H]2O)N1` [Example 1.119], < 100 nM.
To `C[C@@H](Nc1nc(N2CCC([C@H]3CCCN(CCC(=O)O)C3)CC2)ncc1Cl)c1ccc(Cl)cc1Cl` [Example 1.221] belongs < 100 nM.
To `CC(=O)N1CCC[C@@H]1C(=O)N1CCN(c2ncc(Cl)c(N[C@H](C)c3ccc(Cl)cc3Cl)n2)CC1` [Example 1.237] belongs 100 to 1000 nM.
Turning to `C[C@@H](Nc1nc(N2CCN(C(=O)[C@@H]3CNCC(=O)N3)CC2)ncc1Cl)c1ccc(Cl)cc1Cl` [Example 1.229], the IC50 is > 1000 nM.
On to `C[C@@H](Nc1nc(N2CC[C@H](NC(=O)[C@H]3CCCN3)[C@@H](O)C2)ncc1OC(F)F)c1ccc(Cl)cc1Cl` [Example 1.155], for which the IC50 is < 100 nM.
In the case of `C[C@@H](Nc1nc(N2CCN(C(=O)[C@H]3CCC(=O)N3)CC2)ncc1OC(F)F)c1ccc(Cl)cc1Cl` [Example 1.171], the IC50 is < 100 nM.
To `COc1nc(N2CCN(C(=O)[C@H]3CCCN3)CC2)nc(N[C@H](C)c2ccc(Cl)cc2Cl)c1Cl` [Example 1.175] belongs < 100 nM; to `CCOc1cnc(N2CCN(C(=O)[C@H]3CCCN3)CC2)nc1N[C@H](C)c1ccc(Cl)cc1Cl` [Example 1.181], < 100 nM; to `C[C@@H](Nc1nc(N2CC[C@H](NC(=O)[C@H]3CCC(=O)N3)[C@H](O)C2)ncc1F)c1ccc(Cl)cc1Cl` [Example 1.091], > 1000 nM.
To `C[C@@H](Nc1ccnc(N2CCN(C(=O)[C@H]3CCC(=O)N3)CC2)n1)c1ccc(Cl)cc1Cl` [Example 1.116] belongs < 100 nM.
The same measure for `C[C@@H](Nc1nc(N2CCC(NC(=O)[C@H]3C[C@H](F)CN3)CC2)ncc1Cl)c1ccc(Cl)cc1Cl` [Example 1.137]: 100 to 1000 nM.
For the compound `COc1cnc(N2CCC(NC(=O)[C@H]3CCCN3)CC2)nc1N[C@H](C)c1ccc(Cl)cc1Cl` [Example 1.176], the IC50 was < 100 nM.
To `CCOc1cnc(N2CCN(C(=O)[C@H]3CCN(C)C3)CC2)nc1N[C@H](C)c1ccc(Cl)cc1Cl` [Example 1.184] belongs < 100 nM; to `C[C@@H](Nc1nc(N2CC[C@H](NC(=O)[C@H]3CN(C)C(=O)N3)[C@@H](O)C2)ncc1Cl)c1ccc(Cl)cc1Cl` [Example 1.218], > 1000 nM.
As to `C[C@@H](Nc1nc(N2CCC(C3CCCN(CCC(N)=O)C3)CC2)ncc1Cl)c1ccc(Cl)cc1Cl` (some centres unmarked) [Example 1.127], the IC50 is < 100 nM.
With `COc1cnc(N2CCN(C(=O)C3CCN(C)CC3)CC2)nc1N[C@H](C)c1ccc(Cl)cc1Cl` [Example 1.165], the IC50 was < 100 nM.
To `C[C@@H](Nc1nc(N2CCC(O[C@@H]3CCNC3)CC2)ncc1Cl)c1ccc(Cl)cc1Cl` [Example 1.211] belongs < 100 nM; to `C[C@@H](Nc1nc(N2CCN(C(=O)[C@@H]3CNCCO3)CC2)ncc1Cl)c1ccc(Cl)cc1Cl` [Example 1.145], < 100 nM; to `Cc1nc(N2CCN(C(=O)[C@H]3CCC(=O)N3)[C@H](C)C2)nc(N[C@H](C)c2ccc(Cl)cc2Cl)c1Cl` [Example 1.105], < 100 nM.
`C[C@@H](Nc1nc(N2CCC(OC3CCN(C)C3)CC2)ncc1Cl)c1ccc(Cl)cc1Cl` (some centres unmarked) [Example 1.241]: the IC50 was < 100 nM.
Turning to `C[C@@H](Nc1nc(N2CCN(C(=O)[C@H]3CCC(=O)N3)CC2)ncc1F)c1ccc(F)cc1Cl` [Example 1.085], the IC50 was < 100 nM.
To `Cc1nc(N2CCN(C(=O)[C@H]3CCC(=O)N3)CC2)nc(N[C@H](C)c2c(F)cc(Cl)cc2Cl)c1Cl` [Example 1.260] belongs < 100 nM; to `C[C@@H](Nc1nc(N2CCN(C(=O)[C@H]3CCCN3)CC2)ncc1C#N)c1ccc(Cl)cc1Cl` [Example 1.207], 100 to 1000 nM; to `C[C@@H](Nc1nc(N2CCN(C(=O)[C@@H]3COCCN3)CC2)ncc1Cl)c1ccc(Cl)cc1Cl` [Example 1.128], 100 to 1000 nM.
To `C[C@@H](Nc1nc(N2CCN(C(=O)[C@H]3CCCN3CCC(F)(F)F)CC2)ncc1Cl)c1ccc(Cl)cc1Cl` [Example 1.219] belongs 100 to 1000 nM; to `C[C@@H](Nc1nc(N2CCN(C(=O)[C@]3(C)CCCN3)CC2)ncc1Cl)c1ccc(Cl)cc1Cl` [Example 1.208], < 100 nM; to `COc1cnc(N2CCN(C(=O)C34CC(CN3)C4)CC2)nc1N[C@H](C)c1ccc(Cl)cc1Cl` [Example 1.121], < 100 nM.
To `C[C@@H](Nc1nc(N2CCN(C(=O)[C@H]3CCCN3C(N)=O)CC2)ncc1Cl)c1ccc(Cl)cc1Cl` [Example 1.138] belongs 100 to 1000 nM; to `C[C@@H](Nc1nc(N2CCN(C(=O)[C@H]3CCC(=O)N3)CC2)ncc1C1CC1)c1ccc(Cl)cc1Cl` [Example 1.098], 100 to 1000 nM; to `C[C@@H](Nc1nc(N2CCN(C(=O)C3(N)CCOCC3)CC2)ncc1Cl)c1ccc(Cl)cc1Cl` [Example 1.205], 100 to 1000 nM.
With `C[C@@H](Nc1nc(N2CCN(C(=O)C3CNC(=O)C3)CC2)ncc1Cl)c1ccc(Cl)cc1Cl` (some centres unmarked) [Example 1.147], the IC50 is < 100 nM.
For the compound `CC(C)Oc1cnc(N2CCN(C(=O)[C@H]3CCCN3)CC2)nc1N[C@H](C)c1ccc(Cl)cc1Cl` [Example 1.174], the IC50 is < 100 nM.
To `C[C@@H](Nc1nc(N2CCN(C(=O)C[C@H]3CCCN3)CC2)ncc1OC(F)F)c1ccc(Cl)cc1Cl` [Example 1.166] belongs < 100 nM; to `C[C@@H](Nc1nc(N2CC[C@H](NC(=O)[C@H]3CCC(=O)N3)[C@@H](O)C2)ncc1F)c1ccc(Cl)cc1Cl` [Example 1.100], > 1000 nM.
As for `C[C@@H](Nc1nc(N2CCN(C(=O)[C@H]3CCN(C)C3)CC2)ncc1C#N)c1ccc(Cl)cc1Cl` [Example 1.243], the IC50 was < 100 nM.
To `C[C@@H](Nc1nc(N2CCC(C(=O)N[C@@H]3CCNC3=O)CC2)ncc1Cl)c1ccc(Cl)cc1Cl` [Example 1.228] belongs 100 to 1000 nM.
The same measure for `COc1cnc(N2CCN(C(=O)[C@H]3CCC(=O)N3)CC2)nc1N[C@H](C)c1ccc(Cl)cc1Cl` [Example 1.188]: < 100 nM; for `C[C@@H](Nc1nc(N2CCN(C(=O)[C@H]3CCC(=O)N3)CC2)ncc1N)c1ccc(Cl)cc1Cl` [Example 1.095]: < 100 nM.
Regarding `C[C@@H](Nc1nc(N2CCN(C(=O)[C@H](N)CO)CC2)ncc1Cl)c1ccc(Cl)cc1Cl` [Example 1.213], the IC50 lay within 100 to 1000 nM.
To `C[C@@H](Nc1nc(N2CC[C@H](NC(=O)CCN(C)C)[C@@H](O)C2)ncc1Cl)c1ccc(Cl)cc1Cl` [Example 1.245] belongs < 100 nM.
To `C[C@@H](Nc1nc(N2CCC(O[C@H]3CCNC3)CC2)ncc1Cl)c1ccc(Cl)cc1Cl` [Example 1.230] belongs < 100 nM; to `C[C@@H](Nc1nc(N2CCN(C(=O)[C@H]3CCCN3Cc3nnn[nH]3)CC2)ncc1Cl)c1ccc(Cl)cc1Cl` [Example 1.139], < 100 nM; to `C[C@@H](Nc1nc(N2CCN(C(=O)[C@H]3CC(F)(F)CN3)CC2)ncc1Cl)c1ccc(Cl)cc1Cl` [Example 1.146], 100 to 1000 nM.
The same measure for `C[C@@H](Nc1nc(N2CC[C@H](NC(=O)[C@@]3(C)CCCN3)[C@@H](O)C2)ncc1Cl)c1ccc(Cl)cc1Cl` [Example 1.246]: 100 to 1000 nM; for `C[C@@H](Nc1nc(N2CC[C@H](NC(=O)[C@H]3CCCCN3)[C@@H](O)C2)ncc1Cl)c1ccc(Cl)cc1Cl` [Example 1.124]: < 100 nM.
As to `C[C@@H](Nc1nc(N2CCN(C(=O)[C@H]3CCC(=O)N3)CC2)ncc1Cl)c1c(F)cc(Cl)cc1Cl` [Example 1.198], the IC50 was < 100 nM.
